The data set addresses SOD1. Conditions: ASO.

After the bases stand the sugars from the 5' end (letter, count) and the backbone: PS all phosphorothioate, else s phosphorothioate and o phosphodiester by linkage. Methylation of C is not given here. e = 2'-O-(2-methoxyethyl) (MOE); k = constrained ethyl (cEt); d = 2'-deoxy (DNA)

Sequence “TTAATACCCATCTGTGATTT (sugars e5 d10 e5, PS)” gave a target mRNA inhibition (HepG2, 5 µM) of 11%.
Take “TTAATGTTTATCAGGA (sugars ekddddddddekekee, linkages s1 o1 s8 o3 s2)”: the target mRNA inhibition turned out to be 0% (A431, 0.12 µM); 7% (A431, 0.6 µM); 21% (A431, 3 µM); 46% (A431, 15 µM); 52% (HepG2, 0.222 µM); 73% (HepG2, 0.667 µM). Moreover, the target mRNA inhibition is, setting by setting: (HepG2, 2 µM) 84%; (HepG2, 6 µM) 93%.
With “TTAATGTTTATCAGGAT (sugars e2 k2 d8 k2 e3, linkages s1 o2 s9 o2 s2)”, the target mRNA inhibition worked out at 12% (A431, 0.12 µM); 36% (A431, 0.6 µM); 49% (A431, 3 µM); 72% (A431, 15 µM); 67% (HepG2, 0.222 µM); 90% (HepG2, 0.667 µM). The sequence also had a target mRNA inhibition (HepG2, 2 µM) of 97% and a target mRNA inhibition (HepG2, 6 µM) of 94%.
As to “TTAATGTTTATCAGGAT (sugars e2 k2 d9 k2 e2, PS)”, the target mRNA inhibition is, setting by setting: (HepG2, 0.1875 µM) 43%; (HepG2, 0.75 µM) 78%; (HepG2, 3 µM) 93%; (HepG2, 4 µM) 92%; (HepG2, 12 µM) 98%.
“TTACACCACAAGCCAAA (sugars e2 k2 d8 k2 e3, PS)” displayed a target mRNA inhibition (HepG2, 4 µM) of 60%.
With “TTACACTTTTAAGATTACAG (sugars e5 d10 e5, PS)”, the target mRNA inhibition (HepG2, 5 µM) was found to be 0%.
On to “TTACAGTGTTTAATGTTT (sugars e5 d8 e5, linkages s1 o3 s9 o2 s2)”, for which the target mRNA inhibition (A431, 0.12 µM) is 4%; the target mRNA inhibition (A431, 0.6 µM) worked out at 0%; the target mRNA inhibition (A431, 3 µM) was 33%; the target mRNA inhibition (A431, 15 µM) was 17%; the target mRNA inhibition (HepG2, 0.222 µM) was found to be 17%; the target mRNA inhibition (HepG2, 0.667 µM) was 42%. The target mRNA inhibition was determined as 76% (HepG2, 2 µM) and 54% (HepG2, 6 µM).
In turn, “TTACTTTCCTTCTGCTC (sugars e3 k2 d7 k2 e3, PS)” returned a target mRNA inhibition (HepG2, 3 µM) of 22%.
Consider “TTACTTTCCTTCTGCTCGAA (sugars e5 d10 e5, PS)”, for which, where the note is “HepG2, 3 µM”, the target mRNA inhibition was determined as 30%.
In the case of “TTAGTTTGAATTTGGATTCT (sugars e5 d10 e5, PS)”, the target mRNA inhibition (HepG2, 5 µM) was 0%.
On to “TTATTGGGCGATCCCAA (sugars e2 k2 d9 k2 e2, PS)”, for which the target mRNA inhibition (HepG2, 4 µM) turned out to be 41%.
Regarding “TTCATCCTTTGGCCCAC (sugars e3 k2 d7 k2 e3, PS)”, under “HepG2, 3 µM”, the target mRNA inhibition stood at 26%.
As for “TTCATGGACCACCAGTGTGC (sugars e5 d10 e5, PS)”, the target mRNA inhibition (HepG2, 5 µM) came out at 21%.
Regarding “TTCCAAGTGATCATAAATCA (sugars e5 d10 e5, PS)”, the target mRNA inhibition (HepG2, 5 µM) amounted to 18%.
Consider “TTCCCCACACCTTCACTG (sugars e5 d8 e5, linkages s1 o3 s9 o2 s2)”, for which the target mRNA inhibition is, setting by setting: (A431, 0.12 µM) 2%; (A431, 0.6 µM) 0%; (A431, 3 µM) 0%; (A431, 15 µM) 9%; (HepG2, 0.222 µM) 7%; (HepG2, 0.667 µM) 4%. Further, the target mRNA inhibition is 42% (HepG2, 2 µM) and 17% (HepG2, 6 µM).
“TTCTCACTACAGGTACT (sugars e2 k2 d9 k2 e2, PS)”: under “HepG2, 5 µM”, the target mRNA inhibition is 37%.
On to “TTCTGACAAGTTTAATA (sugars e3 k2 d7 k2 e3, PS)”, for which the target mRNA inhibition (HepG2, 3 µM) was found to be 6%.
In the case of “TTGCCCAAGTCATCTGC (sugars e3 k2 d7 k2 e3, PS)”, for the setting “HepG2, 3 µM”, the target mRNA inhibition worked out at 92%.
Turning to “TTGGATTCTTTTAATAG (sugars e2 k2 d8 k2 e3, PS)”, the target mRNA inhibition (HepG2, 5 µM) is 23%.
“TTTATTCACAGGCTTGA (sugars e2 k2 d8 k2 e3, PS)” gave a target mRNA inhibition (HepG2, 5 µM) of 44%.
Regarding “TTTATTGGGCGATCCCA (sugars e2 k2 d9 k2 e2, PS)”, the target mRNA inhibition (HepG2, 4 µM) was 46%.
Regarding “TTTATTGGGCGATCCCA (sugars e3 k2 d7 k2 e3, PS)”, under “HepG2, 3 µM”, the target mRNA inhibition turned out to be 20%.
“TTTCCACCTTTGCCCAA (sugars e3 k2 d7 k2 e3, PS)”: under “HepG2, 3 µM”, the target mRNA inhibition was found to be 78%.
Sequence “TTTTAGTTTGAATTTGGATT (sugars e5 d10 e5, PS)” returned a target mRNA inhibition (HepG2, 5 µM) of 0%.
As for “TTTTATTCACAGGCTTG (sugars e2 k2 d8 k2 e3, PS)”, where the note is “HepG2, 5 µM”, the target mRNA inhibition was 43%.
Sequence “TTTTTTAGTTTGAATTTGGA (sugars e5 d10 e5, PS)” returned a target mRNA inhibition (HepG2, 5 µM) of 0%.

These data come from the OligoGym collection.
